SMILES strings stand for the structures.

One assay relates to LPS-induced IL-6 release level from THP-1 cells. In words: Test of IL-6 release from THP-1 cells (LPS-induced, IL-6 in supernatant detected by CBA). The class given is cell-based. Conditions: Homo sapiens, THP-1, 24 h, read-out: Inhibition rate @ 10 uM. A digest of the protocol: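 THP-1 cells were treated with compound at final 30, 10, 3 and 1 uM, with dexamethasone 100 nM as reference, then stimulated with LPS. The LPS working solution was 800 ng/ml. After 24 h at 37 °C, IL-6 in the supernatant was measured by CBA.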
As for `C=C1CCC2[C@]3(C)CO[C@@H](C4CCCC4)O[C@@H]3CC[C@@]2(C)[C@@H]1CCOc1cc(Cl)ccc1C(=O)O` (stereo partly drawn) [Compound 448, 4-chloro-2-(2-((3R,4aR,6aS,7R,10bR)-3-cyclopentyl-6a,10b-dimethyl-8-dihydromethylenedecahydro-1H-naphtho[2,1-d][1,3]dioxin-7-yl)ethoxy)benzoic acid], the inhibition at 10 µM was < 30%.

The assay is the same for the next values; noted with them: Homo sapiens; inflammatory factor IL-6 detected by CBA; compound 10 uM; LPS-stimulated THP-1 cells, supernatant after 24 hours; read-out: Inhibition rate @ 10 uM.
Turning to `C=C1CCC2[C@]3(C)CO[C@@H](C4CCCC4)O[C@@H]3CC[C@@]2(C)[C@@H]1CCOc1cncc(O)c1` (stereo partly drawn) [Compound 443, 5-(2-((3R,4aR,6aS,7R,10bR)-3-cyclopentyl-6a,10b-dimethyl-8-dihydromethylenedecahydro-1H-naphtho[2,1-d][1,3]dioxin-7-yl)ethoxy)-pyridin-3-ol], the inhibition at 10 µM lay within 30 to 60%. Still for that read-out and setting: to `C=C1CCC2[C@]3(C)CO[C@@H](C4CCCC4)O[C@@H]3CC[C@@]2(C)[C@@H]1CCOc1cc(C#N)ccc1C(=O)O` (stereo partly drawn) [Compound 445, 4-cyano-2-(2-((3R,4aR,6aS,7R,10bR)-3-cyclopentyl-6a,10b-dimethyl-8-dihydromethylenedecahydro-1H-naphtho[2,1-d][1,3]dioxin-7-yl)ethoxy)benzoic acid] belongs < 30%. Still for that read-out and setting: to `C=C1CCC2[C@]3(C)CO[C@@H](C4CCOCC4)O[C@@H]3CC[C@@]2(C)[C@@H]1CCOc1ccncc1` (stereo partly drawn) [Compound 446, 4-(2-((3R,4aR,6aS,7R,10bR)-6a,10b-dimethyl-8-dihydromethylene-3-(tetrahydro-2H-pyran-4-yl)decahydro-1H-naphtho[2,1-d][1,3]dioxin-7-yl)ethoxy)pyridine] belongs < 30%; to `C=C1CCC2[C@]3(C)CO[C@@H](C4CCCC4)O[C@@H]3CC[C@@]2(C)[C@@H]1CCOc1cc(C)ccc1C(=O)O` (stereo partly drawn) [Compound 447, 2-(2-((3R,4aR,6aS,7R,10bR)-3-cyclopentyl-6a,10b-dimethyl-8-dihydromethylenedecahydro-1H-naphtho[2,1-d][1,3]dioxin-7-yl)ethoxy)-4-methylbenzoic acid], < 30%. The same measure, in the same setting: to `C=C1CCC2[C@]3(C)CO[C@@H](C4CCCC4)O[C@@H]3CC[C@@]2(C)[C@@H]1CCN1CCC[C@@H]1C(=O)O` (some centres unmarked) [Compound 450] belongs > 60%.

Regarding `C=C1CCC2[C@]3(C)CO[C@@H](C4CCCC4)O[C@@H]3CC[C@@]2(C)[C@@H]1CCN1CCCC[C@@H]1C(=O)O` (stereo partly drawn) [Compound 451, (2R)-1-(2-((3R,4aR,6aS,7R,10bR)-3-cyclopentyl-6a,10b-dimethyl-8-methylene-decahydro-1H-naphtho[2,1-d][1,3]dioxin-7-yl)ethyl)piperidine-2-carboxylic acid], the inhibition at 10 µM was in the range of 30 to 60%. As to `C=C1CCC2[C@]3(C)CO[C@@H](C4CCCC4)O[C@@H]3CC[C@@]2(C)[C@@H]1CCOc1cccc(F)c1C(=O)O` (stereo partly drawn) [Compound 452, 2-(2-((3R,4aR,6aS,7R,10bR)-3-cyclopentyl-6a,10b-dimethyl-8-dihydromethylenedecahydro-1H-naphtho[2,1-d][1,3]dioxin-7-yl)ethoxy)-6-fluoro-benzoic acid], the inhibition at 10 µM lay in the range of 30 to 60%.

With `C=C1CCC2[C@]3(C)CO[C@@H](C4CCCC4)O[C@@H]3CC[C@@]2(C)[C@@H]1CCOc1cscc1C(=O)O` (stereo partly drawn) [Compound 453, 4-(2-((3R,4aR,6aS,7R,10bR)-3-cyclopentyl-6a,10b-dimethyl-8-dihydromethylenedecahydro-1H-naphtho[2,1-d][1,3]dioxin-7-yl)ethoxy)thiophene-3-carboxylic acid], the inhibition at 10 µM was > 60%. As to `C=C1CCC2[C@]3(C)CO[C@@H](C4CCCC4)O[C@@H]3CC[C@@]2(C)[C@@H]1CCOc1cnc(C(=O)O)nc1` (stereo partly drawn) [Compound 454, 5-(2-((3R,4aR,6aS,7R,10bR)-3-cyclopentyl-6a,10b-dimethyl-8-dihydromethylenedecahydro-1H-naphtho[2,1-d][1,3]dioxin-7-yl)ethoxy)pyrimidine-2-carboxylic acid], the inhibition at 10 µM was 30 to 60%. Same read-out and setting: to `C=C1CCC2[C@]3(C)CO[C@@H](C4CCCC4)O[C@@H]3CC[C@@]2(C)[C@@H]1CCN1CCOC[C@@H]1C(=O)O` (some centres unmarked) [Compound 456] belongs > 60%.

By inhibition is commonly meant the relative decrease from the control value, in per cent.
